# US6596773B2, “Phenyl substituted pyridine and benzene derivatives” (Hoffmann-La Roche Inc., priority 1999, dated 2003)
# Molecular target: T1, human NK1 receptor (Homo sapiens, UniProt P25103)
# T1 construct: expressed in transfected cells; host or cells: CHO cells infected using the Semliki virus expression system; membrane suspension
# Assay: NK1 receptor binding assay, displacement of [3H]substance P
# Conditions: human NK1 receptors in CHO cells (Semliki virus expression system), [3H]substance P 0.6 nM, 60 min at room temperature; read-out: affinity to the NK-1 receptor, given as pKi (converted)
# Procedure: The affinity of test compounds for the NK1 receptor was evaluated at human NK1 receptors in CHO cells infected with the human NK1 receptor (using the Semliki virus expression system) and radiolabelled with [3H]substance P (final concentration 0.6 nM). Binding assays were performed in HEPES buffer (50 mM, pH 7.4) containing BSA (0.04%) leupeptin ([…]), MnCl2 (3 mM) and phosphoramidon ([…]). Binding assays consisted of […] of membrane suspension (1.25×10^5 cells/assay tube), 0.125 ml of buffer of displacing agent and […] of [3H]substance P. Displacement curves were determined with at least seven concentrations of the compound. The assay tubes were incubated for 60 min at room temperature after which time the tube contents were rapidly filtered under vacuum through GF/C filters presoaked for 60 min with PEI (0.3%) with 2×2 ml washed of HEPES buffer (50 mM, pH 7.4). The radioactivity retained on the filters was measured by scintillation counting. All assays were performed in triplicate in at least 2 separate experiments.
# T1 sequence (P25103 whole entry): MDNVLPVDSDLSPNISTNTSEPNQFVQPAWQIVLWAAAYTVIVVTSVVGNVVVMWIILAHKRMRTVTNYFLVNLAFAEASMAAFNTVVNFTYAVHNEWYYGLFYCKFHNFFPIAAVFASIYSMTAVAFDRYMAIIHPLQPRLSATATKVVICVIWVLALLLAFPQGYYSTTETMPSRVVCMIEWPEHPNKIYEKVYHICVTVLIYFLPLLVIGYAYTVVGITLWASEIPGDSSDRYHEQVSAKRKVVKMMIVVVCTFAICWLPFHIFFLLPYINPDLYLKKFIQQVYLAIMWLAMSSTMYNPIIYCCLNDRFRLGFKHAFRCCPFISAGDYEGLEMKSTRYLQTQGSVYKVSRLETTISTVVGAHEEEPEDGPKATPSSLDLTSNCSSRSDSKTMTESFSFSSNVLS
row,Ki [nM],Compound
1,1.74,"CN(Cc1cc(C(F)(F)F)cc(C(F)(F)F)c1)C(=O)c1cnc(N2CCOCC2)cc1Oc1ccccc1Cl [Example 29, N-(3,5-Bis-trifluoromethyl-benzyl)-4-(2-chloro-phenoxy)-N-methyl-6-morpholin-4-yl-nicotinamide]"
2,3.8,"CN1CCN(c2cc(Oc3ccccc3Cl)c(C(=O)N(C)Cc3cc(C(F)(F)F)cc(C(F)(F)F)c3)cn2)CC1 [Example 30, N-(3,5-Bis-trifluoromethyl-benzyl)-4-(2-chloro-phenoxy)-N-methyl-6-(4-methyl-piperazin-1-yl)-nicotinamide]"
3,13.8,"CN(Cc1cc(C(F)(F)F)cc(C(F)(F)F)c1)C(=O)c1cnc(N2CCOCC2)cc1Oc1ccccc1 [Example 28, N-(3,5-Bis-trifluoromethyl-benzyl)-N-methyl-6-morpholin-4-yl-4-phenoxy-nicotinamide]"
4,2.75,"Cc1ccccc1Oc1cc(N2CCOCC2)ncc1C(=O)N(C)Cc1cc(C(F)(F)F)cc(C(F)(F)F)c1 [Example 31, N-(3,5-Bis-trifluoromethyl-benzyl)-N-methyl-6-morpholin-4-yl-4-o-tolyloxy-nicotinamide]"

# Test system: not given
# Assay: not given
# Conditions: not given
row,melting point,Compound
1,89 to 91 °C,"CN(C(=O)C(C)(C)c1cc(C(F)(F)F)cc(C(F)(F)F)c1)c1ccc(Cl)cc1C(=O)c1ccccc1 [Example 2, N-(2-Benzoyl-4-chloro-phenyl)-2-(3,5-bis-trifluoromethyl-phenyl)-N-methyl-isobutyramide]"
2,105 °C (dec.),CN1CCN(c2cc(C(=O)c3ccccc3)c(C(=O)N(C)Cc3cc(C(F)(F)F)cc(C(F)(F)F)c3)cn2)CC1.Cl
3,145 °C (dec.),CN1CCN(c2cc(C(=O)c3ccccc3Cl)c(C(=O)N(C)Cc3cc(C(F)(F)F)cc(C(F)(F)F)c3)cn2)CC1.Cl
